Measurements: patent US20250197374A1, “WEE1 DEGRADING COMPOUNDS AND USES THEREOF” (BRISTOL-MYERS SQUIBB COMPANY, priority 2023, published 2025)

Legend:
Format in all cases: cell-based
MDA-MB-231 cells = experiment: MDA-MB-231 cell proliferation assay (Cell-Titer-Glo, 120 hr); settings: for EC50: Homo sapiens, MDA-MB-231, 120 h, read-out: MDA-MB 231 Cell Prolif. 120 hr EC50; for MDA-MB 231 Cell Prolif. 120 hr YMin (%): minimal percent of DMSO control observed
In short: (§1)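 Growth inhibition was read as CellTiter-Glo luminescence after 120 h at 37 °C in RPMI/10% FBS, with 400 MKN45 or 800 MDA-MB-231 cells seeded per well. Compounds were tested in 10-point half-log series starting at 1 or 10 uM (0.1% DMSO), in triplicate for MKN45 and duplicate for MDA-MB-231. EC50 values are four-parameter fits to %DMSO control, and Ymin-obs is the minimal observed %DMSO.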

MKN45 cells = experiment: MKN45 cell proliferation assay (Cell-Titer-Glo, 120 hr); settings: for EC50: Homo sapiens, MKN-45, 120 h, read-out: MKN45 Cell Prolif. 120 hr EC50; for MKN45 Cell Prolif. 120 hr YMin (%): minimal percent of DMSO control observed
In short: as §1

WEE1 = target: T1, WEE1 (Homo sapiens, UniProt P30291+Q96SW2); experiment: WEE1-ePL degradation assay (293T-LentiX, InCELL Hunter luminescence, 4 hr); settings: for DC50: LentiX-HEK293T cells expressing WEE1-ePL, 4 hr incubation, read-out: 293T-LentiX WEE1-ePL Degradation 4 hr EC50; for 293T-LentiX WEE1-ePL Degradation 4 hr YMin (%): lower limit of fit, % of DMSO control signal remaining
T1 construct: C-terminal ePL-tagged (DiscoverX, Fremont, CA) full-length WEE1 expression construct; expressed in transfected cells; host or cells: LentiX-HEK293T (Invitrogen), lentivirally transduced; the cells also over-express GSPT1-GN
In short: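 EC50 comes from a four-parameter logistic fit of ePL luminescence (InCELL Hunter), with DMSO control defining Ymax. Compounds ran as 10-point 3-fold dilutions from 1 or 10 µM for 4 h at 37 °C. Cells were HEK293T-LentiX with ePL-tagged full-length WEE1 and over-expressed Cereblon-resistant GSPT1-GN.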

T1 sequence (P30291 whole entry): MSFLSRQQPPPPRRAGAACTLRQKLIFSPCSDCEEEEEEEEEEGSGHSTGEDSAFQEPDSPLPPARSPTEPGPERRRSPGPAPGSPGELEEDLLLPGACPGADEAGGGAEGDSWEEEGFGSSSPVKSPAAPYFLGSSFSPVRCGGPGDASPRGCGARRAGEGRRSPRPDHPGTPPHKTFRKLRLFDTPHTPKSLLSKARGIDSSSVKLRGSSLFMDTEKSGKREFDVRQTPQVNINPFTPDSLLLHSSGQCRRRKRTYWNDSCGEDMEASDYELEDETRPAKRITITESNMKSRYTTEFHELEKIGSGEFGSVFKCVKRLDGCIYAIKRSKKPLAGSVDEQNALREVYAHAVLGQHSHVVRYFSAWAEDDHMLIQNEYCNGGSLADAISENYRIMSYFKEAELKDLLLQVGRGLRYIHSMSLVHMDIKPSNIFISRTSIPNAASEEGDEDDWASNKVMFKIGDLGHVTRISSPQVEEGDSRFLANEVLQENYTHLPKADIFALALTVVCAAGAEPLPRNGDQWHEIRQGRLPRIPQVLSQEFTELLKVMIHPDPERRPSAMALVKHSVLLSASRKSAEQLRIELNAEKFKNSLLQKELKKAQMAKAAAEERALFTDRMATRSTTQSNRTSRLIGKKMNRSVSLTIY
T1 sequence (Q96SW2 whole entry): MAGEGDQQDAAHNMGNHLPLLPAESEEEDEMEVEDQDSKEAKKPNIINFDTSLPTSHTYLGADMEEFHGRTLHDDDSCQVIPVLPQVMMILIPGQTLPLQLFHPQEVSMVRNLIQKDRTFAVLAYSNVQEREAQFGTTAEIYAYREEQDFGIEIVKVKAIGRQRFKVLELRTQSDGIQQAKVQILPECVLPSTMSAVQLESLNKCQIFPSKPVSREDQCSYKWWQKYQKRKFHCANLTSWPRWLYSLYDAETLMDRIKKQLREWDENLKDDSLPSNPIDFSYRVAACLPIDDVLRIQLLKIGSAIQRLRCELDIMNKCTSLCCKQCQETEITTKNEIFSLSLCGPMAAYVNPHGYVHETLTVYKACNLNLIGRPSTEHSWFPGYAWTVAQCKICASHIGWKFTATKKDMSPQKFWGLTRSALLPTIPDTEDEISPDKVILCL
T1 sequence (Q16531 whole entry partner): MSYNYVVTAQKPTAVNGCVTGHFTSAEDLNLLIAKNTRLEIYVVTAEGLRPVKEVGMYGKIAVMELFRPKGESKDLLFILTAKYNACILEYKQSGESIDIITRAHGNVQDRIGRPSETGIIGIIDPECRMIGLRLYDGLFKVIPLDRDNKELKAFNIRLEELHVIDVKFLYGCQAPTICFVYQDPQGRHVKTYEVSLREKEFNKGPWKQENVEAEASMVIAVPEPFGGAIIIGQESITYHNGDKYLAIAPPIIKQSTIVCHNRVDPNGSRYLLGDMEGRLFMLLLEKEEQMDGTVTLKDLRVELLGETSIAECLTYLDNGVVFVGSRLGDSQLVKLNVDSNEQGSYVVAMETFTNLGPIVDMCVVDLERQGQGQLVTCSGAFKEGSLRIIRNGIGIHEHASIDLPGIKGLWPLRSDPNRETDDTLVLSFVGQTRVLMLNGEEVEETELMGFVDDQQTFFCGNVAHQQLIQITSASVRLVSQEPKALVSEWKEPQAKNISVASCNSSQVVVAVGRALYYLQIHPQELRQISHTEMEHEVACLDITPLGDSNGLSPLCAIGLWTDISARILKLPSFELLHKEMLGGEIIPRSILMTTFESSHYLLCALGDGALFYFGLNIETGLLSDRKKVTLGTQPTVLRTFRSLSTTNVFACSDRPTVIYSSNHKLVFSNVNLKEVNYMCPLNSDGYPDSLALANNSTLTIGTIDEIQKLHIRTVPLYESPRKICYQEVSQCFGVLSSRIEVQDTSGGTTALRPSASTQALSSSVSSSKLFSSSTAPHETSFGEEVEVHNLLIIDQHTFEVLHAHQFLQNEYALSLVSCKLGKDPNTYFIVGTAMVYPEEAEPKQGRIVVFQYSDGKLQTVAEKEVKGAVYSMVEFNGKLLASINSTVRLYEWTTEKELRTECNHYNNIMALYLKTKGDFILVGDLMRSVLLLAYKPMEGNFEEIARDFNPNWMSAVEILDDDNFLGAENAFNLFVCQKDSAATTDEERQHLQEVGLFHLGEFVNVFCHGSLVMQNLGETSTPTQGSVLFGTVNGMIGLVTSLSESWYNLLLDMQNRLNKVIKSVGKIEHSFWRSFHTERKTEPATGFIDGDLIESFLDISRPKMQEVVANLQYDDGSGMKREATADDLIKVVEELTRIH

SMILES | EC50 (MDA-MB-231 cells) | MDA-MB 231 Cell Prolif. 120 hr YMin (%) (MDA-MB-231 cells) | EC50 (MKN45 cells) | MKN45 Cell Prolif. 120 hr YMin (%) (MKN45 cells) | DC50 (WEE1) | 293T-LentiX WEE1-ePL Degradation 4 hr YMin (%) (WEE1)
COC[C@@H]1CN(Cc2ccc3ncc(N4CCOCC4)cc3c2)C[C@H]1Oc1ccc2c(c1)CN([C@H]1CCC(=O)NC1=O)C2=O [Example 29, (3S)-3-(5-{[(3S,4S)-4-(methoxymethyl)-1-{[3-(morpholin-4-yl)quinolin-6-yl]methyl}pyrrolidin-3-yl]oxy}-1-oxo-2,3-dihydro-1H-isoindol-2-yl)piperidine-2,6-dione] | 25 nM | 17.8% | 2 nM | 8.8% | 1 nM | 26.4%
COC[C@@H]1CN(Cc2cc(F)c3cc(N4CCOCC4)cnc3c2)C[C@H]1Oc1ccc2c(c1)CN([C@H]1CCC(=O)NC1=O)C2=O [Example 103, (3S)-3-(5-{[(3S,4S)-1-{[5-fluoro-3-(morpholin-4-yl)quinolin-7-yl]methyl}-4-(methoxymethyl)pyrrolidin-3-yl]oxy}-1-oxo-2,3-dihydro-1H-isoindol-2-yl)piperidine-2,6-dione] | 5 nM | 82.3% | 29 nM | 28.5% | 1 nM | 32.3%
COC[C@@H]1CN(Cc2cc3ccc(C(C)(C)O)cc3cn2)C[C@H]1Oc1ccc2c(c1)CN([C@H]1CCC(=O)NC1=O)C2=O [Example 40, (3S)-3-(5-{[(3S,4S)-1-{[7-(2-hydroxypropan-2-yl)isoquinolin-3-yl]methyl}-4-(methoxymethyl)pyrrolidin-3-yl]oxy}-1-oxo-2,3-dihydro-1H-isoindol-2-yl)piperidine-2,6-dione] | 228 nM | 1.8% | 5 nM | 10.2% | 3 nM | 30.9%
COC[C@@H]1CN(Cc2cc(F)c3nc(C4CCN(CC(F)(F)F)C4)ccc3c2)C[C@H]1Oc1ccc2c(c1)CN([C@H]1CCC(=O)NC1=O)C2=O (relative stereo) [Example 68, rel-(3S)-3-(5-(((3S,4S)-1-((8-fluoro-2-(1-(2,2,2-trifluoroethyl)pyrrolidin-3-yl)quinolin-6-yl)methyl)-4-(methoxymethyl)pyrrolidin-3-yl)oxy)-1-oxoisoindolin-2-yl)piperidine-2,6-dione] | 14 nM | 17.4% | 1 nM | 8.9% | 2 nM | 26.4%
COC[C@@H]1CN(Cc2ccc3nc(C4CCOCC4)cnc3c2)C[C@H]1Oc1ccc2c(c1)CN([C@H]1CCC(=O)NC1=O)C2=O [Example 136, (3S)-3-(5-{[(3S,4S)-4-(methoxymethyl)-1-{[2-(oxan-4-yl)quinoxalin-6-yl]methyl}pyrrolidin-3-yl]oxy}-1-oxo-2,3-dihydro-1H-isoindol-2-yl)piperidine-2,6-dione] | 287 nM | 91.8% | 41 nM | 26.6% | 2 nM | 31.9%
COC[C@@H]1CN(Cc2cc(F)c3nc(C4CCC(O)CC4)ccc3c2)C[C@H]1Oc1ccc2c(c1)CN([C@H]1CCC(=O)NC1=O)C2=O (relative stereo) [Example 54, rel-(S)-3-(5-(((3S,4S)-1-((8-fluoro-2-(4-hydroxycyclohexyl)quinolin-6-yl)methyl)-4-(methoxymethyl)pyrrolidin-3-yl)oxy)-1-oxoisoindolin-2-yl)piperidine-2,6-dione] | 9 nM | 48.9% | – | 10.5% | – | 31.2%
COC[C@@H]1CN(Cc2ccc3nc(N4CCN(C5COC5)CC4)ccc3c2)C[C@H]1Oc1ccc2c(c1)CN([C@H]1CCC(=O)NC1=O)C2=O [Example 104, (3S)-3-(5-{[(3S,4S)-4-(methoxymethyl)-1-({2-[4-(oxetan-3-yl)piperazin-1-yl]quinolin-6-yl}methyl)pyrrolidin-3-yl]oxy}-1-oxo-2,3-dihydro-1H-isoindol-2-yl)piperidine-2,6-dione] | 18 nM | 42.5% | 1 nM | 8.2% | – | 21.3%
COC[C@@H]1CN(Cc2cc(F)c3nc(C4(O)CCOCC4)ccc3c2)C[C@H]1Oc1ccc2c(c1)CN([C@H]1CCC(=O)NC1=O)C2=O [Example 60, (3S)-3-(5-{[(3S,4S)-1-{[8-fluoro-2-(4-hydroxyoxan-4-yl)quinolin-6-yl]methyl}-4-(methoxymethyl)pyrrolidin-3-yl]oxy}-1-oxo-2,3-dihydro-1H-isoindol-2-yl)piperidine-2,6-dione] | 54 nM | 33.7% | 3 nM | 11.7% | 1 nM | 27.4%
COC[C@@H]1CN(Cc2cnc3nc(C4CCOCC4)ncc3c2)C[C@H]1Oc1ccc2c(c1)CN([C@H]1CCC(=O)NC1=O)C2=O [Example 134, (3S)-3-(5-{[(3S,4S)-4-(methoxymethyl)-1-{[2-(oxan-4-yl)pyrido[2,3-d]pyrimidin-6-yl]methyl}pyrrolidin-3-yl]oxy}-1-oxo-2,3-dihydro-1H-isoindol-2-yl)piperidine-2,6-dione] | 1420 nM | 75.6% | 108 nM | 12.9% | 37 nM | 32.0%
COC[C@@H]1CN(Cc2cc(F)c3nc(C4CCCO4)ccc3c2)C[C@H]1Oc1ccc2c(c1)CN(C1CCC(=O)NC1=O)C2=O (relative stereo) [Example 65, rel-(3S)-3-(5-(((3S,4S)-1-((8-fluoro-2-(tetrahydrofuran-2-yl)quinolin-6-yl)methyl)-4-(methoxymethyl)pyrrolidin-3-yl)oxy)-1-oxoisoindolin-2-yl)piperidine-2,6-dione] | – | 94.2% | 2 nM | 8.1% | 1 nM | 27.3%
COC[C@@H]1CN(Cc2cc(F)c3nc(N4CCN(C(C)=O)C5(COC5)C4)ncc3c2)C[C@H]1Oc1ccc2c(c1)CN([C@H]1CCC(=O)NC1=O)C2=O [Example 86, (S)-3-(5-(((3S,4S)-1-((2-(5-acetyl-2-oxa-5,8-diazaspiro[3.5]nonan-8-yl)-8-fluoroquinazolin-6-yl)methyl)-4-(methoxymethyl)pyrrolidin-3-yl)oxy)-1-oxoisoindolin-2-yl)piperidine-2,6-dione] | 51 nM | 18.4% | 2 nM | 16.9% | 3 nM | 28.5%
COC[C@@H]1CN(Cc2ccc3nc(C4CCOC(C)(C)C4)ccc3c2)C[C@H]1Oc1ccc2c(c1)CN([C@H]1CCC(=O)NC1=O)C2=O (stereo partly drawn) [Example 84, (3S)-3-(5-{[(3S,4S)-1-{[2-(2,2-dimethyloxan-4-yl)quinolin-6-yl]methyl}-4-(methoxymethyl)pyrrolidin-3-yl]oxy}-1-oxo-2,3-dihydro-1H-isoindol-2-yl)piperidine-2,6-dione] | 83 nM | 21.0% | 1 nM | 10.5% | – | 30.8%
COC[C@@H]1CN(Cc2cc(F)c3nc(C4CN(CC(C)(C)O)C4)ccc3c2)C[C@H]1Oc1ccc2c(c1)CN([C@H]1CCC(=O)NC1=O)C2=O [Example 120, (3S)-3-(5-{[(3S,4S)-1-({8-fluoro-2-[1-(2-hydroxy-2-methylpropyl)azetidin-3-yl]quinolin-6-yl}methyl)-4-(methoxymethyl)pyrrolidin-3-yl]oxy}-1-oxo-2,3-dihydro-1H-isoindol-2-yl)piperidine-2,6-dione] | 63 nM | 30.0% | 2 nM | 7.8% | 4 nM | 17.2%
COC[C@@H]1CN(Cc2cc(F)c3nc(COC4CCN(C)CC4)ccc3c2)C[C@H]1Oc1ccc2c(c1)CN([C@H]1CCC(=O)NC1=O)C2=O [Example 34, (3S)-3-(5-{[(3S,4S)-1-[(8-fluoro-2-{[(1-methylpiperidin-4-yl)oxy]methyl}quinolin-6-yl)methyl]-4-(methoxymethyl)pyrrolidin-3-yl]oxy}-1-oxo-2,3-dihydro-1H-isoindol-2-yl)piperidine-2,6-dione] | 108 nM | 30.7% | 4 nM | 6.9% | 4 nM | 21.8%
